Data: patent publication US9296725B2, “Heterocyclyl pyrimidine analogues as TYK2 inhibitors” (Cellzome Limited, priority 2012, dated 2016)
Like-named read-outs stand apart in the source and are kept apart here.

Key:
TYK2 = target: T1, TYK2 (Homo sapiens, UniProt P29597); test: Kinobeads assay, TYK2 (competition binding in mixed Molt4/Ramos cell lysate, dot blot detection)
T1 construct: endogenous in cells; host or cells: Molt4 (ATCC CRL-1582) and Ramos (ATCC CRL-1596), mixed lysate 1:2
Description: (§1) The compounds of the present invention as described in the previous examples were tested in a Kinobeads™ assay as described for ZAP-70 (WO-A 2007/137867). Briefly, test compounds (at various concentrations) and the affinity matrix with the immobilized aminopyrido-pyrimidine ligand 24 were added to cell lysate aliquots and allowed to bind to the proteins in 10 the lysate sample. After the incubation time the beads with captured proteins were separated from the lysate. Bound proteins were then eluted and the presence of TYK2 and JAK2 was detected and quantified using specific antibodies in a dot blot procedure and the Odyssey infrared detection system. Dose response curves for individual kinases were generated and IC50 values calculated. Kinobeads™ assays have been previously described (WO-A 2007/137867; WO-A 2006/134056).
(§2) The affinity matrix was washed two times with 15 mL of 1×DP buffer containing 0.2% NP40 (IGEPAL® CA-630, Sigma, #13021) and then resuspended in 1×DP buffer containing 0.2% NP40 (3% beads slurry). 5×DP buffer: 250 mM Tris-HCl pH 7.4, 25% Glycerol, 7.5 mM MgCl2, 750 mM NaCl, 5 mM Na3VO4; filter the 5×DP buffer through a 0.22 μm filter and store in aliquots at −80° C. The 5×DP buffer is diluted with H2O to 1×DP buffer containing 1 mM DTT and 25 mM NaF.
(§3) Stock solutions of test compounds were prepared in DMSO. In a 96 well plate 30 μL solution of diluted test compounds at 5 mM in DMSO were prepared. Starting with this solution a 1:3 dilution series (9 steps) was prepared. For control experiments (no test compound) a buffer containing 2% DMSO was used.
(§4) Molt4 cells (ATCC catalogue number CRL-1582) and Ramos cells (ATCC catalogue number CRL-1596) were grown in 1 L Spinner flasks (Integra Biosciences, #182101) in suspension in RPMI 1640 medium (Invitrogen, #21875-034) supplemented with 10% Fetal Bovine Serum (Invitrogen) at a density between 0.15×10^6 and 1.2×10^6 cells/mL. Cells were harvested by centrifugation, washed once with 1×PBS buffer (Invitrogen, #14190-094) and cell pellets were frozen in liquid nitrogen and subsequently stored at −80° C. Cells were homogenized in a Potter S homogenizer in lysis buffer: 50 mM Tris-HCl, 0.8% NP40, 5% glycerol, 150 mM NaCl, 1.5 mM MgCl2, 25 mM NaF, 1 mM sodium vanadate, 1 mM DTT, pH 7.5. One complete EDTA-free tablet (protease inhibitor cocktail, Roche Diagnostics, 1873580) per 25 mL buffer was added. The material was dounced 10 times using a mechanized POTTER S, transferred to 50 mL falcon tubes, incubated for 30 minutes on ice and spun down for 10 minutes at 20,000 g at 4° C. (10,000 rpm in Sorvall SLA600, precooled). The supernatant was transferred to an ultracentrifuge (UZ)-polycarbonate tube (Beckmann, 355654) and spun for 1 hour at 100.000 g at 4° C. (33.500 rpm in Ti50.2, precooled). The supernatant was transferred again to a fresh 50 mL falcon tube, the protein concentration was determined by a Bradford assay (BioRad) and samples containing 50 mg of protein per aliquot were prepared. The samples were immediately used for experiments or frozen in liquid nitrogen and stored frozen at −80° C.
(§5) Cell lysate (approximately 50 mg protein per plate) was thawed in a water bath at room temperature and then stored on ice. To the thawed cell lysate 1×DP 0.8% NP40 buffer containing protease inhibitors (1 tablet for 25 mL buffer; EDTA-free protease inhibitor cocktail; Roche Diagnostics 1873580) was added in order to reach a final protein concentration of 10 mg/mL total protein. The diluted cell lysate was stored on ice. Mixed Molt4/Ramos lysate was prepared by combining one volume of Molt4 lysate and two volumes of Ramos lysate (ratio 1:2).
(§6) To a 96 well filter plate (Multiscreen HTS, BV Filter Plates, Millipore #MSBVN1250) were added per well: 100 μL affinity matrix (3% beads slurry), 3 μL of compound solution, and 50 μL of diluted lysate. Plates were sealed and incubated for 3 hours in a cold room on a plate shaker (Heidolph tiramax 1000) at 750 rpm. […]

JAK2 = target: T2, JAK2 (Homo sapiens, UniProt O60674); test: Kinobeads assay, JAK2 (competition binding in mixed Molt4/Ramos cell lysate, dot blot detection); conditions: read-out: JAK2 Band (Kinobeads assay potency, IC50)
T2 construct: endogenous in cells; host or cells: Molt4 (ATCC CRL-1582) and Ramos (ATCC CRL-1596), mixed lysate 1:2
Description: as §1, §2, §3, §4, §5, §6

[1] = Kinobeads assay, Molt4/Ramos lysate, read-out: TYK2 Band (Kinobeads assay potency, IC50)

T2 sequence (O60674 whole entry): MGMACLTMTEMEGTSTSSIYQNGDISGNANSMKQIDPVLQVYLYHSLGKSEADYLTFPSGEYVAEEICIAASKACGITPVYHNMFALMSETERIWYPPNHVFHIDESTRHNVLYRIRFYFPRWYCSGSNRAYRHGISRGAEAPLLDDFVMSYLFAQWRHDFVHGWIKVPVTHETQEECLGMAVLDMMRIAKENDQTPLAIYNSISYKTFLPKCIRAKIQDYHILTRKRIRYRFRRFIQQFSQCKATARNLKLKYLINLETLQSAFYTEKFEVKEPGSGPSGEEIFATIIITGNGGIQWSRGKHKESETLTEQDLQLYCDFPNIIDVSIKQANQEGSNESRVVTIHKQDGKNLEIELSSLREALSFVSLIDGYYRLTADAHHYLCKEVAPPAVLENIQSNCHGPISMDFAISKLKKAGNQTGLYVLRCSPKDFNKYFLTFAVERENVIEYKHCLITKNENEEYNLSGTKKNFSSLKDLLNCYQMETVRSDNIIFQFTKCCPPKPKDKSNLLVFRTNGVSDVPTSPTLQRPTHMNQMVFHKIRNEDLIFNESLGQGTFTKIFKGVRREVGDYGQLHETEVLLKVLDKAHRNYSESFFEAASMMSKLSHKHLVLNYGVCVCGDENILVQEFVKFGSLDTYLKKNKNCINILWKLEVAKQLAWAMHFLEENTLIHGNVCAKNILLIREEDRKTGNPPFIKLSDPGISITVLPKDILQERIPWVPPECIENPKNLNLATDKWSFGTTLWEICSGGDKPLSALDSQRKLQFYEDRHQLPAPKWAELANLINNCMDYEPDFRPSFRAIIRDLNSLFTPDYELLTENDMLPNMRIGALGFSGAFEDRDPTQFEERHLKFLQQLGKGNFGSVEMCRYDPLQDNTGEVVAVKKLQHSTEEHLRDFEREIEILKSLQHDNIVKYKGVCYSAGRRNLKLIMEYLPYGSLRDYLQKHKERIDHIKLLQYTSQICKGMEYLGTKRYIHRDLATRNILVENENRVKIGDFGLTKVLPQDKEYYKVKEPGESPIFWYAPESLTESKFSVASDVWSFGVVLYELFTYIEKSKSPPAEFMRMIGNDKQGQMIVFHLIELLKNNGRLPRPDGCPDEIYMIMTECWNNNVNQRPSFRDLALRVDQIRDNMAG
T1 sequence (P29597 whole entry): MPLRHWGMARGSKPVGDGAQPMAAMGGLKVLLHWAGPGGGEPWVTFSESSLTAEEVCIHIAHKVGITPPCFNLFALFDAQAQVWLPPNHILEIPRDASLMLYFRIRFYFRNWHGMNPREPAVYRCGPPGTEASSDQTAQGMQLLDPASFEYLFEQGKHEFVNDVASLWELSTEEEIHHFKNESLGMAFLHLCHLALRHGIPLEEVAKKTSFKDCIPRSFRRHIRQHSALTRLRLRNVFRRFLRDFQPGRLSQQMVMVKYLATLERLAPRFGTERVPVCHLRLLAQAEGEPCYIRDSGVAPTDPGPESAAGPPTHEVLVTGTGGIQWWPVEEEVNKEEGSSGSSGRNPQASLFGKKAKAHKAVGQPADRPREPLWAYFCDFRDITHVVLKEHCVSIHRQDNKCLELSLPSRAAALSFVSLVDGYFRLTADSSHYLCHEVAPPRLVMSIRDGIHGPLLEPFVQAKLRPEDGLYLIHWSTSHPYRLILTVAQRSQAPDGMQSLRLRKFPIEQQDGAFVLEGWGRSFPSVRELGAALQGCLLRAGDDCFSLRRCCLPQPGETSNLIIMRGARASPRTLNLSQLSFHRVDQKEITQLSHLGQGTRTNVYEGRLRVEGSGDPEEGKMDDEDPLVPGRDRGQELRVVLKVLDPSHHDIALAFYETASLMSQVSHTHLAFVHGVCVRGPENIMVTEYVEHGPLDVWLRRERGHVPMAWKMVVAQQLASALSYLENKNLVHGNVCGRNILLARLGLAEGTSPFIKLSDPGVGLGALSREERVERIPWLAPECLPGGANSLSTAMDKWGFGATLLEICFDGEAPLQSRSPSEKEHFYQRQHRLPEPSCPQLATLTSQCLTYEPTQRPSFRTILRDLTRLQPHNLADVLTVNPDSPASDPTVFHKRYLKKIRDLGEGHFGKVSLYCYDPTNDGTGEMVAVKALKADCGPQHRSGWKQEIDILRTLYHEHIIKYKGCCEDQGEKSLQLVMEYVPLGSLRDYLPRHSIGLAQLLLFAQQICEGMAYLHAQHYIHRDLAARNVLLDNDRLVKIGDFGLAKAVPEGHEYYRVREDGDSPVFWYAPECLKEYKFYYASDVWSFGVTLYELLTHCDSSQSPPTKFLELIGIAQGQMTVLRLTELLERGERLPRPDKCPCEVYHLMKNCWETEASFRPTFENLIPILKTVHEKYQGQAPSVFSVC

Row | Compound | IC50 (TYK2; [1]) [µM] | IC50 (JAK2) [µM] | IC50 (TYK2; read-out: TYK2 IC50) [µM]
1 | Cc1cnc(Nc2cnn(CC(F)F)c2)nc1NCc1cccc(S(C)(=O)=O)c1 [Example I-466] | 0.1 to 1 | 1 to 10 | –
2 | NC(=O)Cn1cc(Nc2ncc(F)c(NCc3c(Cl)cccc3Cl)n2)cn1 [Example I-328] | 0.01 to 0.1 | 1 to 10 | –
3 | O=C(Cn1cc(Nc2ncc(Cl)c(NCc3ccccn3)n2)cn1)N1CCOCC1 [Example I-338] | 0.1 to 1 | 1 to 10 | –
4 | OCCn1cc(Nc2ncc(F)c(NCc3c(F)cc(F)cc3F)n2)cn1 [Example I-17] | 0.01 to 0.1 | 1 to 10 | –
5 | Cc1ccc(F)c(CNc2nc(Nc3cnn(CC(N)=O)c3)ncc2Cl)c1F [Example I-282] | 0.01 to 0.1 | 1 to 10 | –
6 | COc1ccc(Cl)c(CNc2nc(Nc3cnn(CC(=O)NC(C)C)c3)ncc2F)c1F [Example I-84] | ≤ 0.01 | 0.1 to 1 | –
7 | O=C(Cn1cc(Nc2ncc(Cl)c(NCc3ccccc3)n2)cn1)N1CCC2(CC1)COC2 [Example I-239] | 0.1 to 1 | 1 to 10 | –
8 | Cc1cnc(Nc2cnn(C)c2)nc1NCc1cccc(CNS(C)(=O)=O)c1 [Example I-402] | 0.1 to 1 | 1 to 10 | –
9 | CN(C)C(=O)Cn1cc(Nc2ncc(Cl)c(NCc3cc(OC(F)F)ccc3F)n2)cn1 [Example I-414] | 0.01 to 0.1 | 1 to 10 | –
10 | CC(C)N(C)C(=O)Cn1cc(Nc2ncc(F)c(NCc3cccc(OC(F)F)c3)n2)cn1 [Example I-56] | 0.01 to 0.1 | > 10 | –
11 | Cc1ccc(F)c(CNc2nc(Nc3cn[nH]c3)ncc2Cl)c1F [Example I-371] | 0.01 to 0.1 | 1 to 10 | –
12 | CS(=O)(=O)c1ccc(F)c(CNc2nc(Nc3cn[nH]c3)ncc2Cl)c1 [Example I-98] | 0.01 to 0.1 | 0.1 to 1 | –
13 | CNC(=O)Cn1cc(Nc2ncc(Cl)c(NCc3cc(S(C)(=O)=O)ccc3OC)n2)cn1 [Example I-444] | 0.01 to 0.1 | 0.1 to 1 | –
14 | CS(=O)(=O)c1cccc(CNc2nc(Nc3cnn(CC(F)F)c3)ncc2Cl)c1 [Example I-467] | 1 to 10 | 1 to 10 | –
15 | CCOc1ccc(F)c(CNc2nc(Nc3cn[nH]c3)ncc2Cl)c1F [Example I-368] | 0.01 to 0.1 | 1 to 10 | –
16 | OCCn1cc(Nc2ncc(F)c(NCc3cccc(F)c3F)n2)cn1 [Example I-170] | 0.1 to 1 | 1 to 10 | –
17 | COc1ccc(F)c(CNc2ccnc(Nc3cnn(CC(=O)NCCF)c3)n2)c1F [Example I-126] | 0.01 to 0.1 | 1 to 10 | –
18 | O=C(Cn1cc(Nc2ncc(Cl)c(NCc3ccccc3)n2)cn1)N1CC2(COC2)C1 [Example I-236] | 0.1 to 1 | 1 to 10 | –
19 | N#CCNC(=O)c1cccc(CNc2nc(Nc3cnn(CCO)c3)ncc2Cl)c1 [Example I-242] | 0.1 to 1 | 1 to 10 | –
20 | CN(C)C(=O)Cn1cc(Nc2ncc(Cl)c(NCc3cccc(OCC#N)c3)n2)cn1 [Example I-365] | 0.01 to 0.1 | 1 to 10 | –
21 | CC(C)NC(=O)Cn1cc(Nc2nccc(NCc3c(F)cc(F)cc3F)n2)cn1 [Example I-50] | 0.01 to 0.1 | 1 to 10 | < 0.1
22 | O=C(Cn1cc(Nc2nccc(NCc3c(F)cc(F)cc3F)n2)cn1)NC1CCOC1 (stereo not shown) [Example I-95] | 0.01 to 0.1 | 1 to 10 | –
23 | CN(C)C(=O)Cn1cc(Nc2ncc(Cl)c(NCc3cccc(C(N)=O)c3)n2)cn1 [Example I-390] | 0.1 to 1 | 1 to 10 | –
24 | CC(C)(C)OC(=O)N1CCN(C(=O)Cn2cc(Nc3ncc(Cl)c(NCc4ccccc4)n3)cn2)CC1 [Example I-207] | 0.1 to 1 | > 10 | –
